According to patent US8163509B2, “Biological markers predictive of anti-cancer response to insulin-like growth factor-1 receptor kinase inhibitors” (The Regents of the University of Colorado, A Body Corporate, priority 2008, dated 2012):
Read-outs that look alike come from different tables or passages of the source.

Experiments:
HT29 CRC cell line = test: SRB proliferation assay, 72 h; type: cell-based, human
Procedure: (§1) FIG. 17: Results of cell proliferation assay on the panel of 27 CRC cell lines. Cell proliferation was evaluated by SRB following exposure to OSI-906 for 72 hours. Cells were plated at an optimized density in 96-well plates, incubated overnight at 37° C., and then exposed to a serial dilution of OSI-906. After 72 hours incubation, cells were fixed with trichloroacetic acid and an SRB was performed as described in materials and methods.
(§2) Cell Lines and Culture. […] human colon cancer cell lines, were obtained from American Type Culture Collection (Manassas, Va.). Cells were grown in RPMI medium supplemented with 10% fetal bovine serum, 1% non-essential amino acids, 1% penicillin/streptomycin and were maintained at 37° C. in an incubator under an atmosphere containing 5% CO2. The cells were routinely screened for the presence of mycoplasma (MycoAlert, Cambrex Bio Science, Baltimore, Md.) and were exposed to PQIP when they reached approximately 70% confluence.
(§3) Cytotoxicity and Combination Effects: HT29, HCT116, RKO, and LS513 CRC cell lines were exposed to 0-10 nM SN-38 (7-Ethyl-10-hydroxy-camptothecin), 0-10 μM Oxaliplatin, or 0-50 μM 5-Fluorouracil (5-FU) for 72 hours. HT29, HCT116, RKO, and LS513 CRC cell lines were exposed to PQIP in combination with SN-38, Oxaliplatin or 5-FU. In all combinations, cells were seeded in 96-well flat bottomed plates and left overnight. PQIP and chemotherapy were both added for 72 hours. The results of the combinations were analyzed by the Chou and Talalay method with Calcusyn (Biosoft, Ferguson, Mo.).
(§4) The CRC cell lines were treated with a range of concentrations of PQIP (from 0.05-5 μM) for 72 hours.
To characterize the potential functionality that the selected genes may play in the sensitivity or resistance to PQIP, resistant and sensitive CRC cell lines were stably transfected with specific shRNA, treated with increasing concentrations of PQIP and proliferation assays performed to observe, if when manipulated, these genes alter responsiveness (i.e. the S or R phenotype). Two resistant cell lines HCT116 and SW480 were transfected with metallothionein 2A (MT-2A) shRNA and were exposed to increasing concentrations of PQIP. […] Both of these transfected cell lines were assayed for proliferation as described above. […] HT29 tumor cells were transfected with shRNA for ALDH1A1, which is up regulated in the PQIP sensitive cell lines.
Combination treatment of PQIP with Chemotherapy in Colon Cancer Cell Lines: IGF1R is overexpressed in CRC and has been associated with resistance to chemotherapy. Therefore, we investigated the effect of PQIP in combination with standard chemotherapy for CRC. Four CRC cell lines including, two PQIP sensitive and two PQIP resistant, were chosen for combinations. HT29 and LS513 CRC cell lines were classified as sensitive, with IC50's around 0.3 μmol/L. HCT116 and RKO CRC cell lines were classified as resistant, with IC50>5 μmol/L. Concentrations were chosen based on single agent proliferation curves for each compound. Cells were exposed to PQIP and chemotherapy (SN38, oxaliplatin, or 5-Fluorouracil) concurrently for 72 h and combinations were assessed using the SRB assay. […] It thus appears that biomarkers which predict tumor cell sensitivity will also indicate which cells will respond in a synergistic manner to an IGF-1R kinase inhibitor (e.g. PQIP) and chemotherapy (i.e. SN38, oxaliplatin, or 5-Fluorouracil).
Cell Lines and Culture: Twenty-seven human colon cancer cell lines, were obtained from American Type Culture Collection (Manassas, Va.). The GEO cells were a generous gift from Dr. Fortunato Ciardiello (Cattedra di Oncologia Medica, Dipartimento Medico-Chirurgico di Internistica Clinica e Sperimentale “F Magrassi e A Lanzara,” Seconda Università degli Studi di Napoli, Naples). […]

HCT116 CRC cell line = test: SRB proliferation assay, 72 h; type: cell-based, human; conditions: for IC50: Homo sapiens, HCT-116
Procedure: as §1, with “Cell” for “FIG. 17: Results of cell proliferation assay on the panel of 27 CRC cell lines. Cell”
as §2
Multiple clones from the same transfection were pooled and grown under puromycin selection.
as §3, §4
To characterize the potential functionality that the selected genes may play in the sensitivity or resistance to PQIP, resistant and sensitive CRC cell lines were stably transfected with specific shRNA, treated with increasing concentrations of PQIP and proliferation assays performed to observe, if when manipulated, these genes alter responsiveness (i.e. the S or R phenotype). […] Both of these transfected cell lines were assayed for proliferation as described above.
Therefore, we investigated the effect of PQIP in combination with standard chemotherapy for CRC. […] Cells were exposed to PQIP and chemotherapy (SN38, oxaliplatin, or 5-Fluorouracil) concurrently for 72 h and combinations were assessed using the SRB assay.
Cell Lines and Culture: Twenty-seven human colon cancer cell lines, were obtained from American Type Culture Collection (Manassas, Va.). The GEO cells were a generous gift from Dr. Fortunato Ciardiello (Cattedra di Oncologia Medica, Dipartimento Medico-Chirurgico di Internistica Clinica e Sperimentale “F Magrassi e A Lanzara,” Seconda Università degli Studi di Napoli, Naples). All cells except GEO were grown in RPMI medium supplemented with 10% fetal bovine serum, 1% non-essential amino acids, 1% penicillin/streptomycin and were maintained at 37° C. in an incubator under an atmosphere containing 5% CO2.

| IC50 (HT29 CRC cell line; Homo sapiens, HT-29, 72 h, HT29, 72 hours, read-out: IC50, proliferation, OSI-906 (SRB)) | IC50 (HT29 CRC cell line; Homo sapiens, HT-29, HT29, read-out: S/I/R to OSI-906) | IC50 (HCT116 CRC cell line; HCT116, 72 hours, read-out: IC50, proliferation, OSI-906 (SRB)) | IC50 (HCT116 CRC cell line; HCT116, read-out: S/I/R to OSI-906) | IC50 (HCT116 CRC cell line; HCT116 stably transfected with MT2A shRNA, read-out: IC50, proliferation, OSI-906 (SRB) after MT2A shRNA knockdown) | IC50 (HT29 CRC cell line; HT29, 72 hours, 0.05-5 μM, read-out: IC50, growth inhibition by PQIP (SRB)) | IC50 (HT29 CRC cell line; Homo sapiens, HT-29, 72 h, HT29, 72 hours, 0.05-5 μM, read-out: IC50, growth inhibition by PQIP (SRB)) | IC50 (HCT116 CRC cell line; HCT116, 72 hours, 0.05-5 μM, read-out: IC50, growth inhibition by PQIP (SRB)) | SMILES | combination index (CI) values, PQIP and chemotherapy (HT29 CRC cell line; HT29, PQIP with SN38, oxaliplatin or 5-Fluorouracil concurrently 72 h, nearly all CI values, Chou and Talalay) | shift in sensitivity to PQIP after shRNA knockdown (HT29 CRC cell line; HT29 with ALDH1A1 shRNA knockdown) | combination index (CI) values, PQIP and chemotherapy (HCT116 CRC cell line; HCT116, PQIP with SN38, oxaliplatin or 5-Fluorouracil concurrently 72 h, nearly all combinations, Chou and Talalay) | shift in sensitivity to PQIP after shRNA knockdown (HCT116 CRC cell line; HCT116 transfected with MT2A shRNA vs parental or scramble shRNA control) | shift in sensitivity to PQIP after shRNA knockdown (HCT116 CRC cell line; HCT116 transfected with caldesmon shRNA vs parental or scramble shRNA control) |
| --- | --- | --- | --- | --- | --- | --- | --- | --- | --- | --- | --- | --- | --- |
| ≤ 1.5 µM | ≤ 1.5 µM | > 5 µM | > 5 µM | 5 µM | – | – | – | C[C@]1(O)C[C@@H](c2nc(-c3ccc4ccc(-c5ccccc5)nc4c3)c3c(N)nccn32)C1 [OSI-906, cis-3-[8-amino-1-(2-phenyl-quinolin-7-yl)-imidazo[1,5-a]pyrazin-3-yl]-1-methyl-cyclobutanol] | – | – | – | – | – |
| – | – | – | – | – | ~0.3 µM | < 0.5 µM | > 5 µM | CN1CCN([C@H]2C[C@@H](c3nc(-c4ccc5ccc(-c6ccccc6)nc5c4)c4c(N)nccn43)C2)CC1 [PQIP, cis-3-[3-(4-Methyl-piperazin-1-yl)-cyclobutyl]1-(2-phenyl-quinolin-7-yl)-imidazo[1,5-a]pyrazin-8-ylamine] | 0.2-1.0 | no left shift in sensitivity | 0.6-1.4 | left shift in sensitivity | no left shift in sensitivity |
